Data reported in ChEMBL document CHEMBL1132539 (J Med Chem, 1999).

Key:
Glutamyl aminopeptidase = Glutamyl aminopeptidase (Homo sapiens, UniProt Q07075); experiment: Binding affinity against recombinant Aminopeptidase A
Aminopeptidase N = target: T1, Aminopeptidase N (Sus scrofa, UniProt P15145)
T1 sequence (P15145 whole entry): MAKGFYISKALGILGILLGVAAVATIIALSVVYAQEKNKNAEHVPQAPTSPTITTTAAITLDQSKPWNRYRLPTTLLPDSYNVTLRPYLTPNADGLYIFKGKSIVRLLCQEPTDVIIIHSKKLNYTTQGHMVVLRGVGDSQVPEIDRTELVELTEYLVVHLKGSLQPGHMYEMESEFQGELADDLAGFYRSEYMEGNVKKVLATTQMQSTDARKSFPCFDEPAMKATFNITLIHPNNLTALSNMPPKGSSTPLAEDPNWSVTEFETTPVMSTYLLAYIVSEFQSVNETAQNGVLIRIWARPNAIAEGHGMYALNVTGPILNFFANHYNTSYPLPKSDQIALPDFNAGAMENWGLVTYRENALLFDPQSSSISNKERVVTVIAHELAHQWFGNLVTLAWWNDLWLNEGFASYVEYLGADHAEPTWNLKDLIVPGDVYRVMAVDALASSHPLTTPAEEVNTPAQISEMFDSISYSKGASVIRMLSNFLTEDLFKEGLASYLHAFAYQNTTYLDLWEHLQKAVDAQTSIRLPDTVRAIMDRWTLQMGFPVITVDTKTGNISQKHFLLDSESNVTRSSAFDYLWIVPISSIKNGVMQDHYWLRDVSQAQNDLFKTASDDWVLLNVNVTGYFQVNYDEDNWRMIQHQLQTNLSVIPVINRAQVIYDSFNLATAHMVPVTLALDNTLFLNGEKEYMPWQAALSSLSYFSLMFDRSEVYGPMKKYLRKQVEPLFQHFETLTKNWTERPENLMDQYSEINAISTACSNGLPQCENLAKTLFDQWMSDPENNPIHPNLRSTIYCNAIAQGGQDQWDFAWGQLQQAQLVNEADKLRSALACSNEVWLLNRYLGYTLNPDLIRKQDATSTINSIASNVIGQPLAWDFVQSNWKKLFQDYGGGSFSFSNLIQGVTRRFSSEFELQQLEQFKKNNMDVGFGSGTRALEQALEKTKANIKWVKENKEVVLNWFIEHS
Description: Binding affinity against aminopeptidase N from pig kidney

Neprilysin = target: T2, Neprilysin (Oryctolagus cuniculus, UniProt P08049); experiment: Binding affinity against NEP from rabbit kidney(neutral endopeptidase)
T2 sequence (P08049 whole entry): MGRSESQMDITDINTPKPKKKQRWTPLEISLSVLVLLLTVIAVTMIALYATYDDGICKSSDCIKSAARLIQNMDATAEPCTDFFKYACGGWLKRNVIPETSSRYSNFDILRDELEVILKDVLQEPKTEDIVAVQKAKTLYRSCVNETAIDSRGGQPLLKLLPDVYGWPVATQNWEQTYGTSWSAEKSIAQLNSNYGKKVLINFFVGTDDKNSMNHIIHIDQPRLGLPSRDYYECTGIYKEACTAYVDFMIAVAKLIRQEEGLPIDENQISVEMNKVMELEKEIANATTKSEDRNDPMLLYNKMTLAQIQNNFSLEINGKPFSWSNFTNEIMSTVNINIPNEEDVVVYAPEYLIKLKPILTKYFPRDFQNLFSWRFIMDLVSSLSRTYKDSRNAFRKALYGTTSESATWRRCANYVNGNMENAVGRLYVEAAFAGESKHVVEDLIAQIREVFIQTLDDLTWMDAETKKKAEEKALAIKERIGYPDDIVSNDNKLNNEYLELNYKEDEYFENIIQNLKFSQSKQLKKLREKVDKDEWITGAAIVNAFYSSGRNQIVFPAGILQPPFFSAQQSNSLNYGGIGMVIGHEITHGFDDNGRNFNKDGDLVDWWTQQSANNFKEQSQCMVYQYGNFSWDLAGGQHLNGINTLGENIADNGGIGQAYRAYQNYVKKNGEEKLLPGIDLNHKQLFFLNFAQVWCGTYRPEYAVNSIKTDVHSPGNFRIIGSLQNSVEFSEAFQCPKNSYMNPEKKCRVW

[1] = target: T3, Angiotensin-converting enzyme (Rattus norvegicus, UniProt P47820); experiment: Binding affinity against Angiotensin I converting enzyme from rat testis
T3 sequence (P47820 whole entry): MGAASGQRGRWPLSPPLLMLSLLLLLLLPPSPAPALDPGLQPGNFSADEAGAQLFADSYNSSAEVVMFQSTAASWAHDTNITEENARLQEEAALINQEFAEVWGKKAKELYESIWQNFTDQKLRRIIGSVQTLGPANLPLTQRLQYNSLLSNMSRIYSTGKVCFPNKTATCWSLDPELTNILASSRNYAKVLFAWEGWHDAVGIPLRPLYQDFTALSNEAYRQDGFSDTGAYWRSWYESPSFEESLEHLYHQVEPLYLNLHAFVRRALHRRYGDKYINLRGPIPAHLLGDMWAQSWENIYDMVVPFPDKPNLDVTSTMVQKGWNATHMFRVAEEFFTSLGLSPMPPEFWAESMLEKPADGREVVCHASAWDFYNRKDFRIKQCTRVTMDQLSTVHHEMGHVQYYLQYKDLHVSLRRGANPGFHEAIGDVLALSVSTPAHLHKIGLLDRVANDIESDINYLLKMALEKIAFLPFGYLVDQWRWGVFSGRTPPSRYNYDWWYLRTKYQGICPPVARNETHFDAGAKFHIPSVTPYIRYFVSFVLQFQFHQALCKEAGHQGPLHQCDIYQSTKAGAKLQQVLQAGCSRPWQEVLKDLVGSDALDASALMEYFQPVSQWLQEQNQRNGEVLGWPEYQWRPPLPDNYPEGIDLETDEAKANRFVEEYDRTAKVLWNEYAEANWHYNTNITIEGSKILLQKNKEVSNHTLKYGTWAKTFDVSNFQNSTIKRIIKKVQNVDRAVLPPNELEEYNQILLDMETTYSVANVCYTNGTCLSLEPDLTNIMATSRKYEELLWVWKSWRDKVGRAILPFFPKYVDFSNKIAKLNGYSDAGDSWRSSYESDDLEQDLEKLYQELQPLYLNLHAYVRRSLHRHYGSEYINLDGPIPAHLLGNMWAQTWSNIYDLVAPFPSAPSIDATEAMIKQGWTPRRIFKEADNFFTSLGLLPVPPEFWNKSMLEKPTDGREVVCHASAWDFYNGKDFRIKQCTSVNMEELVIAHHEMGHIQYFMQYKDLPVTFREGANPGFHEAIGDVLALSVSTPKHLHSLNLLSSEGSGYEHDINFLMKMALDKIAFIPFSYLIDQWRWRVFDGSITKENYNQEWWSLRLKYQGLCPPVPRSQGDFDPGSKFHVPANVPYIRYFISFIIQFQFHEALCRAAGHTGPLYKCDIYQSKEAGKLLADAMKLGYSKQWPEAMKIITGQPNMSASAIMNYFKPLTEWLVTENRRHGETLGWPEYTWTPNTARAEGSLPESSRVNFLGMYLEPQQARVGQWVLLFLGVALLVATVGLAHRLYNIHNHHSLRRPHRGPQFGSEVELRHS

Glutamyl aminopeptidase, sequence (Q07075 whole entry): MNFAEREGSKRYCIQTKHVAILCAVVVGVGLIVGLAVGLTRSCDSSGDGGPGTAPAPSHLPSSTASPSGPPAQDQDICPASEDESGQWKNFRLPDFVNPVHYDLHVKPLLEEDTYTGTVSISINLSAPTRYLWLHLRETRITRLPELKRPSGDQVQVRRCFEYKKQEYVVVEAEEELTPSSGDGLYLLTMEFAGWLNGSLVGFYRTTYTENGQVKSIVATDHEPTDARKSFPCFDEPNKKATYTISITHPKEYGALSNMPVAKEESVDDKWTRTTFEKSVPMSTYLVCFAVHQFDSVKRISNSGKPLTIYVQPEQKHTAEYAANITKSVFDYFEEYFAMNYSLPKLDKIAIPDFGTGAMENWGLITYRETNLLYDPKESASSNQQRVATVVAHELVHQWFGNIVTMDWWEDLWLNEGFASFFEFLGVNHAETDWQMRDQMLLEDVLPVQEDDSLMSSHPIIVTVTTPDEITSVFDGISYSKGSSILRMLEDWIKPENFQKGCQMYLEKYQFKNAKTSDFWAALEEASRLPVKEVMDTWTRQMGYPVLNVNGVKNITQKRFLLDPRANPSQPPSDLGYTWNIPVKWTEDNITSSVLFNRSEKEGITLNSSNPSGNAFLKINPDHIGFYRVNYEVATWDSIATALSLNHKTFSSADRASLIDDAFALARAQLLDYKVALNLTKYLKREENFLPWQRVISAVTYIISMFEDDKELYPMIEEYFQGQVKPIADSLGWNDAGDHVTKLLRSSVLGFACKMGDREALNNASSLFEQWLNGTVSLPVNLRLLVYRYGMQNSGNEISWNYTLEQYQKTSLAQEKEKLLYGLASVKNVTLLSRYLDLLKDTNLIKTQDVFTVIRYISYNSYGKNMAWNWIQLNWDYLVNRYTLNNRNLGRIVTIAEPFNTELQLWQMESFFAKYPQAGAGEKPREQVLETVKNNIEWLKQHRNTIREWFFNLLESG

Row | SMILES | Ki (Glutamyl aminopeptidase) | Ki (Aminopeptidase N) | Ki (Neprilysin) | Ki [1]
1 | NC(CCS(N)(=O)=O)C(S)C(=O)N[C@@H](Cc1ccc(O)cc1)C(=O)N[C@@H](CC(=O)O)C(=O)O (some centres undefined) | 150 nM | 7000 nM |  | 
2 | CC[C@@H](C)[C@H](NC(=O)[C@@H](S)[C@H](N)CCS(=O)(=O)O)C(=O)N1CCC(C(=O)O)[C@@H]1C(=O)O (some centres undefined) | 240 nM |  |  | 
3 | CC[C@@H](C)[C@H](NC(=O)[C@@H](S)[C@H](N)CCS(=O)(=O)O)C(=O)N[C@@H](CC(=O)O)C(N)=O | 470 nM | 51000 nM |  | 
4 | CC[C@@H](C)[C@H](NC(=O)[C@@H](S)[C@H](N)CCS(=O)(=O)O)C(=O)N[C@H](CC(=O)O)C(=O)O | 283 nM | > 100000 nM |  | 
5 | CC[C@@H](C)[C@H](NC(=O)[C@@H](S)[C@H](N)CCS(=O)(=O)O)C(=O)N[C@@H](CS(=O)(=O)O)C(=O)O | 83.3 nM |  |  | 
6 | CC[C@@H](C)[C@H](NC(=O)[C@@H](S)[C@H](N)CCP(=O)(O)O)C(=O)N[C@@H](CC(=O)O)C(=O)O | 910 nM | > 10000 nM |  | 
7 | N[C@H](CCS(=O)(=O)O)[C@H](S)C(=O)N[C@@H](Cc1ccc(O)cc1)C(=O)N[C@@H](CCS(=O)(=O)O)C(=O)O | 73.3 nM |  |  | 
8 | CC[C@@H](C)[C@H](NC(=O)[C@@H](S)[C@H](N)CCS(=O)(=O)O)C(N)=O | 4200 nM | > 10000 nM |  | 

The next compounds have a lower Ki (Glutamyl aminopeptidase) than those just listed; values first:

Row | Ki (Glutamyl aminopeptidase) | Ki (Aminopeptidase N) | Ki (Neprilysin) | Ki [1] | SMILES
9 | 20 nM | 23000 nM |  |  | CC[C@@H](C)[C@H](NC(=O)[C@H](S)[C@@H](N)CCS(=O)(=O)O)C(=O)N[C@@H](CC(=O)O)C(=O)O
10 | 53 nM | > 100000 nM |  |  | CC[C@@H](C)[C@H](NC(=O)[C@@H](S)[C@H](N)CCS(=O)(=O)O)C(=O)N[C@@H](CC(=O)O)C(=O)O
11 | 12 nM | > 10000 nM | 5.4 nM | 2200 nM | CC[C@@H](C)[C@H](NC(=O)[C@H](S)[C@H](N)CCP(=O)(O)O)C(=O)N[C@@H](CC(=O)O)C(=O)O
12 | 5.36 nM | > 100000 nM |  |  | CC[C@@H](C)[C@H](NC(=O)[C@H](S)[C@H](N)CCS(=O)(=O)O)C(=O)N[C@H](CC(=O)O)C(=O)O
13 | 15 nM | 44000 nM |  |  | CC[C@@H](C)[C@H](NC(=O)[C@H](S)[C@H](N)CCS(=O)(=O)O)C(=O)N[C@@H](CC(=O)O)C(N)=O
14 | 4.3 nM | 31000 nM | 34 nM | 1800 nM | N[C@H](CCS(=O)(=O)O)[C@@H](S)C(=O)N[C@@H](Cc1ccc(O)cc1)C(=O)N[C@@H](CC(=O)O)C(=O)O
15 | 3.6 nM |  | 17 nM | 1210 nM | CC[C@@H](C)[C@H](NC(=O)[C@H](S)[C@H](N)CCS(=O)(=O)O)C(=O)N[C@@H](CS(=O)(=O)O)C(=O)O
16 | 40 nM | > 10000 nM |  |  | CC[C@@H](C)[C@H](NC(=O)[C@H](S)[C@H](N)CCS(=O)(=O)O)C(=O)O
